Key:
[1] = test system: transforming growth factor β1 (TGF-β1) expression; conditions: cited from earlier work
[2] = following nasogastric intake of 20 mg/kg/day of GlcN; cited from earlier work
[3] = test system: surgically manipulated rat knees (osteoarthritis); experiment: Experimental model of osteoarthritis in rodents, intraarticular injection, cartilage histology (safranin-O); format: in vivo; conditions: 2 mM, transcutaneous intraarticular injections weekly for three weeks
Experimental: For example, in an experimental model of osteoarthritis in rodents, rat knees were surgically manipulated to obtain histological manifestations of osteoarthritis (Janusz et al., Osteoarth, Cart. 10:785-791, 2002). Four weeks […], injured joints were untreated, or treated with a PBS control, a 2 mM glucosamine solution or a 1:1 mixture of 2 mM glucosamine solution and CSMA-aldehyde (chondroitin sulfate methacrylate) (Wang et al., Nat. Mater. 6:385-392, 2007). Treatments were transcutaneous, intraarticular injections weekly for three weeks.

[4] = test system: cell growth, matrix production and gene expression; conditions: narrow window; cited from earlier work

Compound: N[C@H]1C(O)O[C@H](CO)[C@@H](O)[C@@H]1O (stereo partly drawn) [glucosamine, Glucosamine]
- TGF-β1 expression [1]: upregulated
- level in serum [2]: ~6 µM
- level in synovial fluid [2]: ~0.5 µM
- cartilage development and organization across treatment groups [3]: best developed and well organized
- cartilage development in treated joints (histology, safranin-O) ([3]; four weeks after surgery, compared to PBS control and untreated control joints): Florid cartilage development
- concentration window with beneficial effect on cell growth, matrix production and gene expression [4]: no more than 2 mM

Source: patent US20100227836A1, “PARENTERAL ADMINISTRATION OF A GLUCOSAMINE” (THE JOHNS HOPKINS UNIVERSITY, priority 2008, published 2010)
